# Test results taken from patent US10968232B2 (Merck Sharp & Dohme Corp., priority 2016, dated 2021).
# Read-outs that look alike come from different tables or passages of the source.
# Biological target: T1, human GPR40 (Homo sapiens, UniProt O14842)
# T1 construct: expressed in transfected cells
# Experiment: Inositol Phosphate Turnover (IP1) Assay
# Format: cell-based
# Details: HEK cells stably expressing human GPR40, CisBio IP-One kit, 60 minutes at 37 degrees
# Experimental: Human GPR40 stable cell-lines were generated in HEK cells. The expression plasmids were transfected using lipofectamine (Life Technologies) following manufacturer's instructions. Stable cell-lines were generated following drug selection and single cell cloning. The assay was performed in 384-well format. HEK cells stably expressing human GPR40 were plated at 7500 cells per well in growth medium (DMEM/10% fetal calf serum). Cell plates were then incubated 16 hours at 37 degrees in a 5% CO2 incubator. Measurement of Inositol Phosphate Turnover (IP1) was performed using the CisBio IP-One kit (Part number 62IPAPEB). After the 16 hour incubation, the growth media was removed by centrifugation using the BlueWasher (AusWasher GUI Ver. v1.0.1.8) Protocol #21-“Light Dry” and 10 ul of stimulation buffer (prepared as described in the kit) was added to each well. In a separate plate, compounds were diluted in DMSO (200-fold over the final concentration in the assay well) and 50 nl was acoustically transferred to the appropriate well in the assay cell plate. The plates were then incubated for 60 minutes at 37 degrees in a 5% CO2 incubator. 10 ul of detection buffer (also prepared as described in the IP-One kit) was added to each well and the plates were incubated at room temperature for 60 minutes in the dark. The plates were then read in a Perkin Elmer EnVision or equivalent reader able to measure FRET. […] Data was normalized to % activity using a reference compound and EC50s determined using a standard 4-parameter fit.
# T1 sequence (O14842 whole entry): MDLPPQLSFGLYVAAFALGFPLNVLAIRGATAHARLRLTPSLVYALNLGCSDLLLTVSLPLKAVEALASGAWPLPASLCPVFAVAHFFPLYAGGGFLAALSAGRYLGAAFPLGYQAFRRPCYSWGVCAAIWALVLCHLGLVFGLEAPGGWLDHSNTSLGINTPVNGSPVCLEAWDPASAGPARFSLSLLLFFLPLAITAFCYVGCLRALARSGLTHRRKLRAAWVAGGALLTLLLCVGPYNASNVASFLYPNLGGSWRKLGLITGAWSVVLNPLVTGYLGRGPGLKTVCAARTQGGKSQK
SMILES,EC50 (read-out: Human IP1 EC50) [nM],EC50 (Human IP1 EC50 (nM)) [nM]
"CCCn1cc(-c2ccc(OC(F)(F)F)c(C(C)N3CCC4(CCc5ccc([C@H](C6CC6)[C@H](C)C(=O)O)cc5O4)CC3)c2)cn1 (single isomer, unassigned) [Example 113, sodium (2S,3R)-3-cyclopropyl-2-methyl-3-(1′-S or R)-1-(5-(1-propyl-1H-pyrazol-4-yl)-2-(trifluoromethoxy)phenyl)eth-yl)spiro[chroman-2,4′-piperidin]-7-yl)propanoate]",579,
"Cc1nocc1-c1ccc(OC(F)(F)F)c(C(C)N2CCC3(CCc4ccc([C@H](C5CC5)[C@H](C)C(=O)O)cc4O3)CC2)c1 (single isomer, unassigned) [Example 115, (2S,3R)-3-cyclopropyl-2-methyl-3-(1′-((R or S)-1-(5-(3-methylisoxazol-4-yl)-2-(trifluoromethoxy)phenyl)eth-yl)spiro[chroman-2,4′-piperidin]-7-yl)propanoic acid]",41.7,
"Cc1nocc1-c1ccc(OC(F)(F)F)c(C(C)N2CCC3(CCc4ccc([C@H](C5CC5)[C@H](C)C(=O)O)cc4O3)CC2)c1 (single isomer, unassigned) [Example 116, (2S,3R)-3-cyclopropyl-2-methyl-3-(1′-((R or S)-1-(5-(3-methylisoxazol-4-yl)-2-(trifluoromethoxy)phenyl)eth-yl)spiro[chroman-2,4′-piperidin]-7-yl)propanoic acid]",323,
"CC(c1cc(-c2ccoc2)ccc1OC(F)(F)F)N1CCC2(CCc3ccc([C@H](C4CC4)[C@H](C)C(=O)O)cc3O2)CC1 (single isomer, unassigned) [Example 117, (2S,3R)-3-cyclopropyl-3-(1′-((R or S)-1-(5-(furan-3-yl)-2-(trifluoro-methoxy)-phenyl)ethyl)spiro[chroman-2,4′-piperidin]-7-yl)-2-methylpropanoic acid]",36.9,
"CC(c1cc(-c2ccoc2)ccc1OC(F)(F)F)N1CCC2(CCc3ccc([C@H](C4CC4)[C@H](C)C(=O)O)cc3O2)CC1 (single isomer, unassigned) [Example 118, (2S,3R)-3-cyclopropyl-3-(1′-((S or R)-1-(5-(furan-3-yl)-2-(trifluoromethoxy)phenyl)ethyl)spiro[chroman-2,4′-piperidin]-7-yl)-2-methylpropanoic acid]",2.29,
"CCc1[nH]c(C(=O)O)cc1-c1ccc(OC(F)(F)F)c(C(C)N2CCC3(CCc4ccc([C@H](C5CC5)[C@H](C)C(=O)O)cc4O3)CC2)c1 (single isomer, unassigned) [Example 120, 4-(3-((S or R)-1-(7-((1R,2S)-2-carboxy-1-cyclopropylpropyl)spiro[chro-man-2,4′-piperidin]-1′-yl)ethyl)-4-(trifluoro-methoxy)phenyl)-5-ethyl-1H-pyrrole-2-carboxylic acid]",501,
"CCC(c1cc(C(F)(F)F)ccc1C(F)(F)F)N1CCC2(CCc3ccc([C@H](C4CC4)[C@H](C)C(=O)O)cc3O2)CC1 (stereo in doubt) [Example 9, (2S,3R)-3-(1′-((S)-1-(2,5-bis(trifluoromethyl)phenyl)propyl)spiro[chroman-2,4′-piperidin]-7-yl)-3-cyclopropyl-2-methylpropanoic Acid]",0.73,
"CC(c1cc(F)ccc1OC(F)(F)F)N1CCC2(CCc3ccc([C@H](C4CC4)[C@H](C)C(=O)O)c(F)c3O2)CC1 (stereo partly drawn) [Example 2, (2S,3R)-3-cyclopropyl-3-(8-fluoro-1′-(1-(5-fluoro-2-(trifluoro-methoxy)phenyl)ethyl)-spiro[chroman-2,4′-piperidin]-7-yl)-2-methylpropanoic acid]",3.29,
"C[C@H](C(=O)O)[C@H](c1ccc2c(c1F)OC1(CC2)CCN(Cc2cc(F)ccc2OC(F)(F)F)CC1)C1CC1 [Example 3, (2S,3R)-3-cyclopropyl-3-(8-fluoro-1′-(5-fluoro-2-(trifluoromethoxy)-benzyl)spiro[chroman-2,4′-piperidin]-7-yl)-2-methylpropanoic acid]",11.7,
"C[C@H](C(=O)O)[C@H](c1ccc2c(c1F)OC1(CC2)CCN(Cc2cc(Cl)ccc2OC(F)(F)F)CC1)C1CC1 [Example 4, (2S,3R)-3-(1′-(5-chloro-2-(trifluoromethoxy)benzyl)-8-fluorospiro[chroman-2,4′-piperidin]-7-yl)-3-cyclopropyl-2-methylpropanoic Acid]",8.06,

# Next, values leading:
EC50 (read-out: Human IP1 EC50) [nM],EC50 (Human IP1 EC50 (nM)) [nM],SMILES
995,,"COc1ncc(C(F)(F)F)cc1C(C)N1CCC2(CCc3ccc([C@H](C4CC4)[C@H](C)C(=O)O)cc3O2)CC1 (single isomer, unassigned) [Example 102, (2S,3R)-3-cyclopropyl-3-(1′-((R or S)-1-(2-methoxy-5-(trifluoromethyl)pyridin-3-yl)ethyl)spiro-[chroman-2,4′-piperidin]-7-yl)-2-methylpropanoic Acid]"
140,,"COc1ncc(C(F)(F)F)cc1C(C)N1CCC2(CCc3ccc([C@H](C4CC4)[C@H](C)C(=O)O)cc3O2)CC1 (single isomer, unassigned) [Example 103, (2S,3R)-3-cyclopropyl-3-(1′-((S or R)-1-(2-methoxy-5-(trifluoro-methyl)pyridin-3-yl)ethyl)spiro[chroman-2,4′-piperidin]-7-yl)-2-methylpropanoic acid]"
59.8,,"COc1ccc(C(F)(F)F)c(C(C)N2CCC3(CCc4ccc([C@H](C5CC5)[C@H](C)C(=O)O)cc4O3)CC2)n1 (single isomer, unassigned) [Example 104, sodium (2S,3R)-3-cyclopropyl-3-(1′-((R or S)-1-(6-methoxy-3-(trifluoromethyl)pyridin-2-yl)ethyl)spiro[chroman-2,4′-piperidin]-7-yl)-2-methylpropanoate]"
126,,"COc1ccc(C(F)(F)F)c(C(C)N2CCC3(CCc4ccc([C@H](C5CC5)[C@H](C)C(=O)O)cc4O3)CC2)n1 (single isomer, unassigned) [Example 105, sodium (2S,3R)-3-cyclo-propyl-3-(1′-((S or R)-1-(6-methoxy-3-(trifluoromethyl)pyridin-2-yl)ethyl)-spiro-[chroman-2,4′-piperidin]-7-yl)-2-methylpropanoate]"
15.6,,"COc1cc(C(C)N2CCC3(CCc4ccc([C@H](C5CC5)[C@H](C)C(=O)O)cc4O3)CC2)c(C(F)(F)F)cn1 (single isomer, unassigned) [Example 106, sodium (2S,3R)-3-cyclo-propyl-3-(1′-((R or S)-1-(2-methoxy-5-(trifluoro-methyl)pyridin-4-yl)ethyl)spiro[chroman-2,4′-piperidin]-7-yl)-2-methylpropanoate]"
2.12,,"COc1cc(C(C)N2CCC3(CCc4ccc([C@H](C5CC5)[C@H](C)C(=O)O)cc4O3)CC2)c(C(F)(F)F)cn1 (single isomer, unassigned) [Example 107, sodium (2S,3R)-3-cyclo-propyl-3-(1′-((S or R)-1-(2-methoxy-5-(trifluoro-methyl)pyridin-4-yl)ethyl)spiro[chroman-2,4′-piperidin]-7-yl)-2-methylpropanoate]"
,15.8,"CC(c1cc(C(F)(F)F)cc(Cl)c1F)N1CCC2(CCc3ccc([C@H](C4CC4)[C@H](C)C(=O)O)cc3O2)CC1 (single isomer, unassigned) [Example 108, (2S,3R)-3-(1′-((R or S)-1-(3-chloro-2-fluoro-5-(trifluoromethyl)phenyl)ethyl)spiro-[chroman-2,4′-piperidin]-7-yl)-3-cyclopropyl-2-methylpropanoic Acid]"
